The values below come from patent US20130116185A1, “PHOSPHATIDYLINOSITOL 3-KINASES ACTIVITY REGULATOR INCLUDING THE FIFTH ZINC FINGER DOMAIN OF FOG2” (SNU R&DB FOUNDATION, priority 2010, published 2013).

Assay [1] has as its target T1, PI3K (Homo sapiens, UniProt P27986). The assay is described as follows: IGF-1-induced PI3K activation in Hep3B cells incubated with peptides. Further details: The cell lysates were immunoprecipitated with p85α (sc-1637, Santa Cruz) and Protein G-Sepharose beads; endogenous in cells; host or cells: Hep3B. To be noted: 4 μM peptides, 48 hr, FIG. 2C. Format: cell-based. The procedure: (§1) For measurement of PI3K activity, 10 μl of sonicated PIP2 (1 μg/μl, Calbiochem), 10 μl of 100 mM MgCl2 and 1 μl of [-^32P]ATP (500 μCi/ml) were added to the kinase buffer (10 mM Tris-HCl (pH 7.4), 150 mM NaCl, 1 mM Na3VO4, 10 mM ZnCl2) and incubated at 37° C. for 30 min. After incubation, 20 μl of 6 N HCl was added to stop the reaction and PIP2 was extracted by treatment with 200 μl of methanol:chloroform (1:1) solution. The amount of radioactively labeled PIP2 in the extract was measured using a scintillator counter.
In addition, Hep3B liver cancer cells were incubated with 4 μM peptides for 48 hr and the PI3K activity was analyzed.

Another assay deals with MCF 7. The assay is described as follows: Apoptosis by FACS analysis in MCF7 cells. Format: cell-based. The following applies: synthesized peptides, FIG. 7D. An excerpt:
FIG. 7D is a graph showing the apoptotic effect by synthesized zinc finger domain peptides of FOG2 in MCF7 cells according to FACS analysis;
(In general: In flow cytometry, cells or beads pass a laser one at a time.)

The test system of a further assay is Akt. The assay is described as follows: Akt phosphorylation by Western blot in Hep3B cells treated with peptide and IGF-1. Format: cell-based. The following applies: 4 μM peptide 2 days, serum-free 24 hr, IGF-1 30 min, FIG. 2D. The procedure:
To test whether the Akt activity induced by IGF-1 treatment is inhibited by the synthesized peptides, Hep3B cells were incubated with IGF-1 and ZF-5-wt-24 […] and the expressions of Akt and pAkt were analyzed.
Hep3B cells were incubated with 4 μM ZF-5-wt-24 for 2 days and then further incubated in a serum-free media for 24 hr. Afterwards, the cells were incubated with IGF-1 for 30 min and subject to the Western blot analysis. Mock (DMSO) was used as a control.
A general note: Immunoblotting shows a protein as a band on a membrane.

A further assay has as its system HCT116 cells. The assay is described as follows: Colony formation assay in 0.3% agar. In kind it is cell-based. To be noted: synthesized peptide, one week, colonies over 1 mm counted, FIG. 3C. The procedure: HCT116 cells (1×10^3) were trypsinized and seeded in triplicate in a six-well plate. The serum-free medium containing the synthesized peptide in <Example 3> and 0.3% agar was incubated with the cells. One week after treatment, the generated colony was visualized with 0.5 mg/ml NBT (Nitro blue tetrazolium chloride) and the colonies over 1 mm in diameter were counted.

The target of assay [2] is T1, PI3K. The assay is described as follows: PI3K activity in MDA MB 231 cells incubated with zinc finger domain peptides. In kind it is cell-based. On the set-up: The cell lysates were immunoprecipitated with p85α (sc-1637, Santa Cruz) and Protein G-Sepharose beads; endogenous in cells. The following applies: synthesized peptides, FIG. 5. The procedure: as §1
For peptide treatment, cells were trypsinized to detach them from a culture dish and their aliquot (2×10^5 cells) was incubated with 4 μM peptides in 100 mm dishes. The control was incubated with Mock (DMSO).

Assay [3] concerns MDA MB 231 cells. The assay is described as follows: Cell migration, modified Boyden chamber method. Format: cell-based. To be noted: 4 μM peptide, 2 days of treatment, 18 hr migration, FIG. 3B. As to the method:
MDA MB 231 cells were transfected with pCK-flag (control), FOG2-wt (wild type) and FOG2 mutants having modified zinc finger domain (FOG2-ZF-5-m and FOG2-ZF-6-m). The cell migration was then analyzed using the modified Boyden chamber method (Albini A et al., Cancer Res 1987 47:3239-45). Following the transfection for 24 hr, MDA MB 231 cells (1×10^5) were suspended in a serum-free medium and seeded in triplicate in the upper part of BD chamber ([…] pore size). The lower part was filled with the serum-free medium. Following the incubation at 37° C. for 18 hr, non-migrating cells positioned at the upper surface of filters were cleaned with a cotton swab. The migrating cells passing through the lower surface of filters were fixed with 70% ethanol and treated with the Giemsa staining solution for 50 min. Then, the cells were rinsed with water and observed under a microscope. The cell migration rate was determined by counting the number of cells present in randomly-selected six sections and the migration range was expressed as the average number of cells per a microscopic field.
MDA MB 231 cells were incubated with 4 μM Mock (control, DMSO), 4 μM ZF-5-wt-24, 4 μM ZF-5-m-24, 4 μM ZF-5-wt-20 or 4 μM ZF-3-wt-21. After treatment, the cell migration was analyzed using the modified Boyden chamber method (Albini A et al., Cancer Res 1987 47:3239-45). After 2 days of treatment, MDA MB 231 cells (1×10^5) were suspended in the serum free medium and seeded in triplicate in the upper part of BD chamber ([…] pore size). The lower part was filled with the serum free medium. Following the incubation at 37° C. for 18 hr, non-migrating cells positioned at the upper surface of filters were cleaned with the cotton swab. The migrating cells passing through the lower side surface of filters were fixed with 70% ethanol and stained using the Giemsa stain method. The cell migration rate was determined by counting the number of cells present in randomly-selected six sections and the migration range was expressed as the average number of cells per a microscopic field.

The test system of assay [4] is MDA MB 231 cells. The assay is described as follows: Apoptosis by FACS analysis (propidium iodide) in MDA MB 231 cells. Format: cell-based. The following applies: synthesized peptides, FIG. 7C. The procedure: PI3K inactivation has been reported to cause cancer cell apoptosis, and FOG2 is known to inhibit the PI3K activity. To test whether PI3K inactivation by overexpressing FOG2 induces apoptosis, MDA MB 231 cells overexpressed FOG2 were analyzed with FACS.
MDA MB 231 cells were incubated with Full-FOG2[1-1151], FOG2[1-412], FOG2[413-789] or FOG2[802-1151]. The cells (5×10^4) were seeded in a 12-well plate and transfected with 1 μg of Full-FOG2[1-1151], FOG2[1-412], FOG2[413-789] or FOG2[802-1151] using Lipofectamine 2000. The cells were incubated at 37° C. for 2 days and subject to FACS analysis.
The cells were incubated with FOG2 fragments and fixed with 70% ethanol for 16 hr. The fixed cells were stained using RNase (5 mg/ml) and propidium iodide ([…]). The amount of DNA in stained cells was analyzed with Cell Quest program of FACS caliber (Becton Dickinson).

Assay [5] deals with MDA MB 231 cells. The assay is described as follows: Cell proliferation MTT assay. In kind it is cell-based. As to the method: Because the PI3K activation is critical in cell growth, the cell proliferation was analyzed to investigate the inhibitory effect of the FOG2 zinc finger domain using the MTT assay.
MDA MB 231 cells were seeded in a 96-well plate, and transfected with 100 ng DNA of pCKflag, FOG2-wt, FOG2-ZF-5-m or FOG2-ZF-6-m using Lipofectamine 2000. On 3 days post-transfection, the MTT assay was performed.
MDA MB 231 cells (2×10^3 cells) were seeded in a 96-well plate and treated with 4 μM each peptide for 3 days. After the treatment, 50 μl of MTT solution (2 mg/ml) was added to each well, incubated at 37° C. for 1 hr. Then, 150 μl of DMSO was added to each well and the absorbance value of each well was measured at 590 nm using a microplate reader.
In general terms: Tetrazolium dyes change colour on reduction, which living cells bring about.

Assay [6] addresses T1, PI3K. The assay is described as follows: In vitro competition analysis (PI3K immunoprecipitated from 293T cell lysates with p85α antibody plus peptides). The following applies: peptides 1 μM, 5 μM and 10 μM, dose-dependent, compared with ZF-3-wt-21, FIG. 2B. On the set-up: The cell lysates were immunoprecipitated with p85α (sc-1637, Santa Cruz) and Protein G-Sepharose beads; endogenous in cells. In kind it is biochemical. As to the method:
The in vitro competition analysis was performed by PI3K immunoprecipitation in 293T cells. The activated PI3K was extracted from the 293T cell lysates by immunoprecipitating with p85α antibody simultaneously with addition of the synthesized peptides (1 μM, 5 μM and 10 μM). The PI3K activation was induced as described above.

Entries after “also recorded” stand apart in the source; their conditions may differ.

T1 sequence (P27986 whole entry): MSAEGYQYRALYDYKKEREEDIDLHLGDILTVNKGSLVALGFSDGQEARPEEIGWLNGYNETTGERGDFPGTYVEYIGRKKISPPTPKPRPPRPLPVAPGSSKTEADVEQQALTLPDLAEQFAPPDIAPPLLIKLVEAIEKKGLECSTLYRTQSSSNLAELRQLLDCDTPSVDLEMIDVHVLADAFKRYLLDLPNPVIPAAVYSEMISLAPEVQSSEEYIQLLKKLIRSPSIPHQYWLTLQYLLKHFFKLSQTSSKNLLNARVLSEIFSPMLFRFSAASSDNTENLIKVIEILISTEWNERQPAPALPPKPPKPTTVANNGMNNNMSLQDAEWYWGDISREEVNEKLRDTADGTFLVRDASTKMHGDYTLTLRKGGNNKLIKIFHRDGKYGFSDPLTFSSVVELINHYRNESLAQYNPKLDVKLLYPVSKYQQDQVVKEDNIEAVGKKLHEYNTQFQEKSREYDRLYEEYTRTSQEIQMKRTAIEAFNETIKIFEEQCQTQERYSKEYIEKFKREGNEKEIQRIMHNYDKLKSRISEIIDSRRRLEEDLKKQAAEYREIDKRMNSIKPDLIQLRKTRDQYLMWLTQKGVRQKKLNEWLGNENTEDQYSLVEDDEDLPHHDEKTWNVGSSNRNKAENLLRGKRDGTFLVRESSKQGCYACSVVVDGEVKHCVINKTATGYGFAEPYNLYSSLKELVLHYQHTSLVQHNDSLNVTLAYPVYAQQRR

With “ZF-5-wt-24: The peptide comprising a portion of the fifth zinc finger domain of FOG2 (24 amino acids); residues 547-570 (GATCFECNITFNNLDNYLVHKKHY)”, in the assay with PI3K [1], the “IGF-1-induced PI3K activation” value was “inhibited”. For the same substance, the apoptosis result in the assay with MCF 7 and with MDA MB 231 cells [4] was “promoted apoptosis” each time. Further, the “Akt phosphorylation induced by IGF-1 stimulation” value in the assay on Akt is reported as “reduced”. Besides, the “number of colonies / colony formation” value in the assay with HCT116 cells is given as “reduces the colony formation; also recorded: reduced”. Moreover, the PI3K activity entry with PI3K [2] is “decrease PI3K activity”. Also, in the assay with MDA MB 231 cells [3], the “reduction of cell migration” value is “reduce the cell migration”. Further, the “reduction of cell proliferation” value in the assay with MDA MB 231 cells [5] (4 μM peptide for 3 days) was “about 40%”. In the assay with MDA MB 231 cells [5] (synthesized peptide, increasing concentration, FIG. 6B), the “inhibitory effect on cell proliferation” value is “reduces the cancer cell proliferation; also recorded: became more prominent as ZF-5-wt-24 concentration increased”. Further, the “reduction of PI3K activity” value with PI3K [6] was “about 40%”.
